Reference: US20250285714A1, “A PHARMACEUTICAL PLATFORM TECHNOLOGY FOR DRUG DISCOVERY AND CONSUMER HEALTH PRODUCT DEVELOPMENT” (SINOVEDA CANADA INC., priority 2021, published 2025)

Key:
[1] = human
Text: An inhouse physiologically based pharmacokinetic (PBPK) simulation program has been established. It supports one, two and multi-compartment models. The compartmental model program was designed using Matlab and Simulink to emulate human physiological conditions. With appropriate human physiological parameter input, absorption, distribution, metabolism and excretion profiles of compounds of interest can be estimated in human.
The parameter used for the evaluation is maximum exposure index (MEI), a product of AUC and the highest percentage recorded for Cannabis.

HepG2 cells [2] = experiment: rtPCR TaqMan array of cancer pathway genes in treated HepG2 cells; type: cell-based, human; conditions: 6 h; CBD 17, CBC 23, CBN 20, 1:1:1 17, sorafenib 12 μg/ml
Protocol: rt-PCR: Target cancer gene pathways will be analyzed using a custom Taqman array card exploring 91 unique genes involved with a few cancer pathways.
Two million HepG2 cells in IMDM media with 20% FBS, and 1% ethanol were seeded in T75 flasks and incubated at 37° C., 7.5% CO2 until 70-80% confluent (approx. […]). The media were replenished with media containing individual cannabinoids (CBD 17 μg/ml, CBC 23 μg/ml, CBN 20 μg/ml) and cannabinoid mixture of CBD:CBC:CBN of 1:1:1 (17 μg/ml) and incubated for 6 hours prior to harvest. […] Untreated cells were included as a negative control Glyceraldehyde-3-phosphate dehydrogenase (GAPDH) was included as an endogenous control and used for normalization of the data.
RNA was extracted using Invitrogen's Dynabead mRNA DIRECT kit using the recommended protocol to provide 50 μL of a purified mRNA solution. […] of RT master mix was mixed into the mRNA solution and the mixture left to react at 37° C. for 60 minutes. Reverse transcriptase inactivation was performed at 95° C. for 5 minutes and the resulting cDNA samples were kept at 4° C. until use. Fifty-five microliters of TaqMan Fast Advance master mix were added to an equal amount of cDNA sample containing 1 μg/100 μl of cDNA, which was loaded into each card reservoir. The cards were centrifuged twice at 1200 RPM for 3 minutes in a Legend XFR centrifuge and the rtPCR reaction was conducted in a QuantStudio7 PCR instrument using the standard settings with 40 amplification cycles.
Assessment of cancer gene pathways were carried out using custom designed TaqMan array cards exploring 86 genes linked to numerous cancer related pathways. […] In addition to individual pathways, genes linked to specific cellular processes were also explored.

HepG2 cells [3] = experiment: In-cell Western-blot protein expression in treated HepG2 cells; type: cell-based, human; conditions: six hour treatment; CBD 17, CBC 23, CBN 20, Sorafenib 12, SCI-111 17, SCI-521 17 μg/ml
Protocol: In-cell Western-blot analysis: Protein expression was assessed by seeding 1000 HepG2 cells/well from cyro frozen stocks into 384 well optical bottom black culture plates from Thermo-Scientific (item 142761) in IMDM media with 20% FBS and 1% ethanol. […] After a six hour treatment, the cells were fixated with 4% formaldehyde for 15 minutes, permeated with 0.1% triton-x100 for 10 minutes, and left in blocking buffer (phosphate buffered saline (PBS) with 3% bovine serum albumin (BSA)) overnight at 4 degrees Celsius. The following day, the cells were rinsed with PBS, incubated with 25 μl PBS containing primary antibody (Table 1) for 3 hours at 25° C. Subsequently, the primary antibody was removed, cells were rinsed twice with PBS, and incubated with 25 μl of PBS containing the secondary antibody (Rabbit: Alexa Fluor 790 donkey anti-rabbit IgG (H+L) Lot 2409042; Mouse: Alexa Fluor 790 donkey anti-mouse IgG (H+L) Lot 2300923) at a concentration of 1:2000. Draq5 (1:2000) was added for normalization of data. After an hour incubation in the secondary antibody, the cells were rinsed with PBS and readings at 700 and 800 nm were acquired on a Licor Odyssey fluorescence imager with a resolution of 21 μm. Analysis was subsequently performed with Empiria Studio 2.1. A total of 5 samples were collected per antibody and the sample size was reduced to 3 for the statistical analysis.

[4] = known human values; cited from earlier work

CCCCCc1cc(O)c(C/C=C(\C)CCC=C(C)C)c(O)c1 [Cannabigerol (CBG), Cannabigerol]
MEI, AUC* % mass [1]: 4.89

CCCCCc1cc(O)c2c(c1)OC(C)(C)c1ccc(C)cc1-2 [CBN, Cannabinol]
rtPCR Log2 fold change relative to untreated cells, BAD (Apoptosis) (HepG2 cells [2]): −1.041 Log2 fold change
rtPCR Log2 fold change relative to untreated cells, ELK1 (Ca signaling) (HepG2 cells [2]): −1.026 Log2 fold change
rtPCR Log2 fold change relative to untreated cells, MAP3K (MAP kinase) (HepG2 cells [2]): 1.518 Log2 fold change
rtPCR Log2 fold change relative to untreated cells, MAPK8 (MAP kinase) (HepG2 cells [2]): −1.284 Log2 fold change
rtPCR Log2 fold change relative to untreated cells, NOTCH1 (NOTCH) (HepG2 cells [2]): −1.084 Log2 fold change
rtPCR Log2 fold change relative to untreated cells, PIK3C2A (PI3K/AKT/MTOR) (HepG2 cells [2]): −1.181 Log2 fold change
rtPCR Log2 fold change relative to untreated cells, PIK3R5 (PI3K/AKT/MTOR) (HepG2 cells [2]): −2.689 Log2 fold change
rtPCR Log2 fold change relative to untreated cells, PPARG (Receptors) (HepG2 cells [2]): 2.204 Log2 fold change
rtPCR Log2 fold change relative to untreated cells, SMAD3 (TGF signaling) (HepG2 cells [2]): −3.711 Log2 fold change
rtPCR Log2 fold change relative to untreated cells, SMO (Hedgehog) (HepG2 cells [2]): 2.336 Log2 fold change
rtPCR Log2 fold change relative to untreated cells, TAZ (HIPPO) (HepG2 cells [2]): −1.143 Log2 fold change
Protein fold change, DVLD (Cellular Adhesion) (HepG2 cells [3]): 1.66 Fold change
Protein fold change, MEK PO4 (MAP kinase/PI3K) (HepG2 cells [3]): 1.33 Fold change
Protein fold change, PI3K (MAP kinase/PI3K) (HepG2 cells [3]): 1.46 Fold change
Protein fold change, TEAD2 (HIPPO signaling) (HepG2 cells [3]): 1.35 Fold change
Protein fold change, c-MYC (Apoptosis) (HepG2 cells [3]): 1.40 Fold change
Protein fold change, p53 (Apoptosis) (HepG2 cells [3]): 1.22 Fold change

C=CC(C)(O)CCC=C(C)C (centres unmarked) [Linalool]
MEI, AUC* % mass [1]: 0.03

CC1(C)C2CCC1(C)C(O)C2 (centres unmarked) [Borneol]
MEI, AUC* % mass [1]: 0.10

Cc1cc(=O)n(-c2ccccc2)n1C [antipyrine]
Hepatic extraction ratio (E) [4]: 0.1

CC1=CCC2CC1C2(C)C (stereo not drawn) [α-pinene]
MEI, AUC* % mass [1]: 65.77

Cc1ncc2n1-c1ccc(Cl)cc1C(c1ccccc1F)=NC2 [midazolam]
Hepatic extraction ratio (E) [4]: 0.5

CCCCCc1cc(O)c2c(c1)OC(C)(CCC=C(C)C)C=C2 (centres unmarked) [CBC, Cannabichromene]
rtPCR Log2 fold change relative to untreated cells, AKT1 (PI3K/AKT/MTOR) (HepG2 cells [2]): −1.915 Log2 fold change
rtPCR Log2 fold change relative to untreated cells, APFAF1 (Apoptosis) (HepG2 cells [2]): −1.945 Log2 fold change
rtPCR Log2 fold change relative to untreated cells, BAD (Apoptosis) (HepG2 cells [2]): −2.917 Log2 fold change
rtPCR Log2 fold change relative to untreated cells, BAX (Apoptosis) (HepG2 cells [2]): −2.332 Log2 fold change
rtPCR Log2 fold change relative to untreated cells, BCL2 (Apoptosis) (HepG2 cells [2]): 3.95 Log2 fold change
rtPCR Log2 fold change relative to untreated cells, BCL2L1 (Apoptosis) (HepG2 cells [2]): −1.241 Log2 fold change
rtPCR Log2 fold change relative to untreated cells, CAMK1 (Ca signaling) (HepG2 cells [2]): −2.15 Log2 fold change
rtPCR Log2 fold change relative to untreated cells, CCND1 (Cell Cycle Arrest) (HepG2 cells [2]): −1.206 Log2 fold change
rtPCR Log2 fold change relative to untreated cells, CDK1 (Cell Cycle Arrest) (HepG2 cells [2]): −1.725 Log2 fold change
rtPCR Log2 fold change relative to untreated cells, CDK2 (Cell Cycle Arrest) (HepG2 cells [2]): −1.316 Log2 fold change
rtPCR Log2 fold change relative to untreated cells, CDK4 (Cell Cycle Arrest) (HepG2 cells [2]): −1.914 Log2 fold change
rtPCR Log2 fold change relative to untreated cells, CDK6 (Cell Cycle Arrest) (HepG2 cells [2]): −1.735 Log2 fold change
rtPCR Log2 fold change relative to untreated cells, CRK - p38 (Cellular Adhesion) (HepG2 cells [2]): −1.414 Log2 fold change
rtPCR Log2 fold change relative to untreated cells, CTNNB1 (Cellular Adhesion) (HepG2 cells [2]): −1.487 Log2 fold change
rtPCR Log2 fold change relative to untreated cells, ELK1 (Ca signaling) (HepG2 cells [2]): −3.143 Log2 fold change
rtPCR Log2 fold change relative to untreated cells, GSK3B (Cellular Adhesion) (HepG2 cells [2]): −1.728 Log2 fold change
rtPCR Log2 fold change relative to untreated cells, MAP1LC3A (MAP kinase) (HepG2 cells [2]): −2.006 Log2 fold change
rtPCR Log2 fold change relative to untreated cells, MAP2K1 (MAP kinase) (HepG2 cells [2]): −2.534 Log2 fold change
rtPCR Log2 fold change relative to untreated cells, MAPK8 (MAP kinase) (HepG2 cells [2]): −2.068 Log2 fold change
rtPCR Log2 fold change relative to untreated cells, MITF (Drug Resistance) (HepG2 cells [2]): −4.421 Log2 fold change
rtPCR Log2 fold change relative to untreated cells, MNT (Cell Cycle Arrest) (HepG2 cells [2]): −2.804 Log2 fold change
rtPCR Log2 fold change relative to untreated cells, MTOR (PI3K/AKT/MTOR) (HepG2 cells [2]): −1.847 Log2 fold change
rtPCR Log2 fold change relative to untreated cells, NOTCH1 (NOTCH) (HepG2 cells [2]): −1.949 Log2 fold change
rtPCR Log2 fold change relative to untreated cells, PAK3 (P21) (Cell Cycle Arrest) (HepG2 cells [2]): −1.643 Log2 fold change
rtPCR Log2 fold change relative to untreated cells, PIK3C2A (PI3K/AKT/MTOR) (HepG2 cells [2]): −1.77 Log2 fold change
rtPCR Log2 fold change relative to untreated cells, PIK3R5 (PI3K/AKT/MTOR) (HepG2 cells [2]): −1.821 Log2 fold change
rtPCR Log2 fold change relative to untreated cells, RAC1 (MAP kinase) (HepG2 cells [2]): −1.422 Log2 fold change
rtPCR Log2 fold change relative to untreated cells, RASA1 (MAP kinase) (HepG2 cells [2]): −1.307 Log2 fold change
rtPCR Log2 fold change relative to untreated cells, RASSF1 (MAP kinase) (HepG2 cells [2]): −1.813 Log2 fold change
rtPCR Log2 fold change relative to untreated cells, ROCK1 (Cellular Adhesion) (HepG2 cells [2]): −1.213 Log2 fold change
rtPCR Log2 fold change relative to untreated cells, SMAD2 (TGF signaling) (HepG2 cells [2]): −1.617 Log2 fold change
rtPCR Log2 fold change relative to untreated cells, SMAD3 (TGF signaling) (HepG2 cells [2]): −2.487 Log2 fold change
rtPCR Log2 fold change relative to untreated cells, STAT1 (JAK-STAT) (HepG2 cells [2]): −2.228 Log2 fold change
rtPCR Log2 fold change relative to untreated cells, STAT5A (JAK-STAT) (HepG2 cells [2]): −1.559 Log2 fold change
rtPCR Log2 fold change relative to untreated cells, SUFU (Hedgehog) (HepG2 cells [2]): −1.668 Log2 fold change
rtPCR Log2 fold change relative to untreated cells, TAZ (HIPPO) (HepG2 cells [2]): −1.874 Log2 fold change
rtPCR Log2 fold change relative to untreated cells, gene name not printed (Angiogenesis, row r45) (HepG2 cells [2]): −1.521 Log2 fold change
rtPCR Log2 fold change relative to untreated cells, gene name not printed (Cell Cycle Arrest, row r42) (HepG2 cells [2]): −2.312 Log2 fold change
rtPCR Log2 fold change relative to untreated cells, gene name not printed (Cellular Adhesion, row r57) (HepG2 cells [2]): −1.865 Log2 fold change
rtPCR Log2 fold change relative to untreated cells, gene name not printed (HIPPO, row r33) (HepG2 cells [2]): −1.568 Log2 fold change
rtPCR Log2 fold change relative to untreated cells, gene name not printed (PI3K/AKT/MTOR, row r20) (HepG2 cells [2]): −2.204 Log2 fold change
rtPCR Log2 fold change relative to untreated cells, gene name not printed (PI3K/AKT/MTOR, row r22) (HepG2 cells [2]): −2.291 Log2 fold change
rtPCR Log2 fold change relative to untreated cells, gene name not printed (Receptors, row r7) (HepG2 cells [2]): −2.51 Log2 fold change
Protein fold change, DVLD (Cellular Adhesion) (HepG2 cells [3]): 1.34 Fold change
Protein fold change, MEK (MAP kinase/PI3K) (HepG2 cells [3]): 1.22 Fold change
Protein fold change, MEK PO4 (MAP kinase/PI3K) (HepG2 cells [3]): 1.68 Fold change
Protein fold change, MET PO4 (Receptor) (HepG2 cells [3]): 1.80 Fold change
Protein fold change, PTEN PO4 (MAP kinase/PI3K) (HepG2 cells [3]): 1.40 Fold change
Protein fold change, TEAD2 (HIPPO signaling) (HepG2 cells [3]): 1.34 Fold change
Protein fold change, c-MYC (Apoptosis) (HepG2 cells [3]): 1.70 Fold change
Protein fold change, p53 (Apoptosis) (HepG2 cells [3]): 1.26 Fold change
